Results published in patent US11946094B2, “Combination therapies and methods of use thereof” (Augusta University Research Institute, Inc., priority 2017, dated 2024).
“Also recorded” adds a separate entry of the source.

Test system: OVCAR-8 cells
Assay: Drug-siRNA combination screen: 346-compound anticancer library at 100 nM, CCK-8 viability
Details: OVCAR-8; for Score (sum of observed SD values for 18 genes): drug 100 nM plus siRNA knockdown of each of 18 genes, distance VAB−VA×VB in SD, single gene contributes at most +5 / −5, negative = synergy, positive = antagonism; for synergy / antagonism of drug with gene knockdowns, in words: panel of 18 siRNA knockdowns
Method: Comparisons of drug effect were performed using data generated on the same day. A minimum of two replicates was performed with drug library screening and a minimum of three replicates was done for all other tests.
Combinatorial effects were classified using two measures of combinatorial action: 1) the coefficient of drug interaction (CDI), defined as (VAB/(VA×VB)) and 2) the distance in standard deviation (SD) of VAB−(VA×VB). […] In confirmation studies significance was determined using a Student's T-test (two-tailed, unpaired) with p<0.05 indicating significance.
To measure the effect of a gene on drug effect, comparisons were made between high expressers of each gene and the wild type cells exposed to sham reagents.
In theory, CDI<1 is indicative of synergy while CDI>1 is indicative of antagonism or additive effect in a multiplicative model.

| Structure (SMILES) | Score (sum of observed SD values for 18 genes) [SD] | synergy / antagonism of drug with gene knockdowns, in words (drug 100 nM) | number of genes (of 18) whose knockdown synergizes with the drug (drug 100 nM, siRNA knockdown) [genes] |
| --- | --- | --- | --- |
| C[C@H](NC(=O)Cc1cc(F)cc(F)c1)C(=O)N[C@@H]1C(=O)N(C)c2ccccc2-c2ccccc21 [0YO-1027] | −38.72 | – | – |
| COc1cc2c(cc1O)CC[C@@H]1[C@@H]2CC[C@]2(C)[C@@H](O)CC[C@@H]12 [2-Methoxyestradiol] | −31.84 | – | – |
| Cn1cnc(N)c2ncnc1-2 [3-Methyladenine] | −24.92 | – | – |
| CO[C@H]1/C=C\C=C(/C)C(=O)NC2=CC(=O)C(NCCN(C)C)=C(C[C@@H](C)C[C@H](OC)[C@H](O)[C@@H](C)/C=C(\C)[C@@H]1OC(N)=O)C2=O.Cl [17 - DMAG HCI] | 19.7 | – | – |
| C=CCNC1=C2C[C@@H](C)C[C@H](OC)[C@H](O)[C@@H](C)/C=C(\C)[C@H](OC(N)=O)[C@@H](OC)/C=C\C=C(/C)C(=O)NC(=CC1=O)C2=O [17-AAG] | −6.69 | – | – |
| N#Cc1c(O)c2c(-c3ccc(-c4ccccc4O)cc3)csc2[nH]c1=O [A-769662] | −22.81 | – | – |
| CN(C)CC[C@H](CSc1ccccc1)Nc1ccc(S(=O)(=O)NC(=O)c2ccc(N3CCN(Cc4ccccc4-c4ccc(Cl)cc4)CC3)cc2)cc1[N+](=O)[O-] [ABT-737] | −5.9 | – | – |
| COc1ccc(S(=O)(=O)Nc2cccnc2Nc2ccc(O)cc2)cc1 [ABT-751] | −13.93 | – | – |
| CN(C)Cc1ccc(-c2nc3cccc4c3n2CCNC4=O)cc1 [AG14361] | 2.72 | – | – |
| Cc1csc(-c2nnc(Nc3ccc(Oc4ncccc4-c4ccnc(N)n4)cc3)c3ccccc23)c1 [AMG 900] | 11.64 | – | – |
| O=C(/C=C/c1cccnc1)NCCCCC1CCN(C(=O)c2ccccc2)CC1 [APO866] | 7.8 | – | – |
| CC(C)[C@H](C(=O)Nc1ccc(C(=O)NO)cc1)c1ccccc1 [AR-42] | −36.88 | mostly synergistic | 10 |
| CN[C@@H](C)C(=O)N[C@H]1CN(C(=O)CC(C)C)CC[C@H]2CC[C@@H](C(=O)NC(c3ccccc3)c3ccccc3)N2C1=O [AT406] | −38.03 | – | – |
| O=C(NC1CCNCC1)c1n[nH]cc1NC(=O)c1c(Cl)cccc1Cl [AT7519] | −24.02 | – | – |
| O=C(Nc1c[nH]nc1-c1nc2ccc(CN3CCOCC3)cc2[nH]1)NC1CC1 [AT9283] | 12.54 | – | – |
| CCNC(=O)c1noc(-c2cc(C(C)C)c(O)cc2O)c1-c1ccc(CN2CCOCC2)cc1 [AUY922] | 8.46 | – | – |
| Cc1ccc(NC(=O)c2cccc(C(C)(C)C#N)c2)cc1Nc1ccc2ncn(C)c(=O)c2c1 [AZ628] | −43.85 | synergistic with knockdown of ten genes | – |
| NC(=O)Nc1cc(-c2cccc(F)c2)sc1C(=O)N[C@H]1CCCNC1 [AZD7762] | −43.68 | Frequently among the top synergizing pairs; also recorded: high level of synergism | – |
| COc1ccc(-c2ccc3c(N4CCOC[C@@H]4C)nc(N4CCOC[C@@H]4C)nc3n2)cc1CO [AZD8055] | -51.01 | – | – |
| CN(C)C/C=C/C(=O)Nc1cc2c(Nc3ccc(F)c(Cl)c3)ncnc2cc1O[C@H]1CCOC1 [Afatinib] | -54.76 | – | – |
| COc1cc(Nc2ncc3c(n2)-c2ccc(Cl)cc2C(c2c(F)cccc2OC)=NC3)ccc1C(=O)O [Alisertib] | −2.8 | – | – |
| CCC1(c2ccc(N)cc2)CCC(=O)NC1=O (stereo not drawn) [Aminoglutethimide] | −9.32 | – | – |
| S=C(NCc1ccc2c(c1)OCO2)N1CCN(c2ncnc3c2oc2ccccc23)CC1 [Amuvatinib] | 12.37 | – | – |

| Structure (SMILES) | Score (sum of observed SD values for 18 genes) [SD] | synergy / antagonism of drug with gene knockdowns, in words (drug 100 nM) | number of genes (of 18) whose knockdown synergizes with the drug (drug 100 nM, siRNA knockdown) [genes] |
| --- | --- | --- | --- |
| Cl.O=C1CN2Cc3c(ccc(Cl)c3Cl)N=C2N1 [Anagrelide HCI] | −8.01 | – | – |
| CC(=O)Nc1ccc(OC[C@](C)(O)C(=O)Nc2ccc([N+](=O)[O-])c(C(F)(F)F)c2)cc1 [Andarine] | −7.28 | – | – |
| C[C@@H](O[C@H]1OCCN(Cc2n[nH]c(=O)[nH]2)[C@H]1c1ccc(F)cc1)c1cc(C(F)(F)F)cc(C(F)(F)F)c1 [Aprepitant] | −23.29 | – | – |
| Cn1cnc([N+](=O)[O-])c1Sc1ncnc2nc[nH]c12 [Azathioprine] | −28.48 | – | – |
| Cc1ccc(S(=O)(=O)/C=C/C#N)cc1 [BAY 11-7082] | −5.7 | – | – |
| Cn1c(=O)n(-c2ccc(C(C)(C)C#N)cc2)c2c3cc(-c4cnc5ccccc5c4)ccc3ncc21 [BEZ235] | −35.65 | – | – |
| CC[C@@H]1C(=O)N(C)c2cnc(Nc3ccc(C(=O)NC4CCN(C)CC4)cc3OC)nc2N1C1CCCC1 [BI2536] | 12.6 | – | – |
| C/C(=C\C(=O)Nc1ccccc1C(=O)O)c1ccc2ccccc2c1 [BIBR 1532] | −16.4 | – | – |
| COc1c(C)cnc(Cn2cnc3c(Cl)nc(N)nc32)c1C [BIIB021] | −33.01 | Frequently among the top synergizing pairs | – |
| CCOc1ccn(-c2ccc(F)cc2)c(=O)c1C(=O)Nc1ccc(Oc2ccnc(N)c2Cl)c(F)c1 [BMS 777607] | −14.73 | – | – |
| Nc1nccc(Oc2ccc(NC(=O)c3c[nH]cc(-c4ccc(F)cc4)c3=O)cc2F)c1Cl [BMS 794833] | −23.46 | – | – |
| Cc1c(NC(=O)OC[C@@H]2COCCN2)cn2ncnc(Nc3ccc4c(cnn4Cc4cccc(F)c4)c3)c12 [BMS-599626] | −40.89 | significant synergy with nine or more genes | – |
| C[C@H]1COC2(CCN(c3nc(=O)c4cc(C(F)(F)F)cc([N+](=O)[O-])c4s3)CC2)O1 [BTZ043] | −13.06 | – | – |
| O=C(NCCCNc1nc(Nc2cccc(NC(=O)N3CCCC3)c2)ncc1I)c1cccs1 [BX-795] | −14.94 | – | – |
| CCN(CCCOc1ccc2c(Nc3cc(CC(=O)Nc4cccc(F)c4)n[nH]3)ncnc2c1)CCOP(=O)(O)O [Barasertib] | 20.03 | – | – |
| C=C(c1ccc(C(=O)O)cc1)c1cc2c(cc1C)C(C)(C)CCC2(C)C [Bexarotene] | −1.35 | – | – |
| CC(O)(CS(=O)(=O)c1ccc(F)cc1)C(=O)Nc1ccc(C#N)c(C(F)(F)F)c1 (stereo not drawn) [Bicalutamide] | −23.24 | – | – |
| COc1cc(Nc2c(C#N)cnc3cc(OCCCN4CCN(C)CC4)c(OC)cc23)c(Cl)cc1Cl [Bosutinib] | −23.5 | – | – |
| Cc1cc2c(F)c(Oc3ncnn4cc(OC[C@@H](C)O)c(C)c34)ccc2[nH]1 [Brivanib] | −14.38 | – | – |
| Nc1cc(C(F)(F)F)c(-c2cc(N3CCOCC3)nc(N3CCOCC3)n2)cn1 [Buparlisib] | 8.79 | – | – |
| CC[C@H](Nc1ncnc2[nH]cnc12)c1nc2cccc(F)c2c(=O)n1-c1ccccc1 [CAL-101] | −27.89 | – | – |
| CN1CCN(c2cccc(Nc3nc4c(-c5ccc(S(C)(=O)=O)cc5)cccn4n3)c2)CC1 [CEP33779] | −27.66 | – | – |
